The target in assay [1] is T1, human pyruvate kinase R (PKR) (Homo sapiens, UniProt P30613).
T1 construct: Human pyruvate kinase R (PKR), residues 14-574; 6xHis (N, cleaved yes); 8xArg (N, cleaved yes); SUMO (N, cleaved yes); host or cells: E. coli
Put plainly: Biochemical assay for activation of pyruvate kinase R (Kinase-Glo luminescence, ATP generation). Conditions: for AC50: PKR biochemical assay, 0.1 nM PKR; for Emax: maximal activation level relative to the activation level achieved by AG-348 @ 10 μM. On the procedure: Human pyruvate kinase R (PKR), residues 14-574, and human pyruvate kinase M2, residues 1-531, were cloned into expression plasmids and obtained from ATUM Bio (Newark, CA). Proteins were translated as fusions with 6×-His,8×-Arg, and SUMO at the N-terminus. A third construct of human PKR was truncated, residues 50-574, and similarly cloned for use in crystallography experiments. All proteins were cloned, expressed in E. coli, and purified using similar protocols. Cells were grown at 30° C. in Luria-Bertani broth supplemented with 0.4% glucose to OD600=0.8 and induced with 0.4 mM IPTG at 16° C. for 18 hours. Cells were harvested by centrifugation, resuspended in 50 mM potassium phosphate pH 8.0, 500 mM NaCl, 25 mM imidazole pH 8.0, and 3 mM β-mercaptoethanol. Cells were lysed using a LM20 microfluidizer from Microfluidics (Westwood, MA). The crude lysate was immediately supplemented with 0.2 mM phenylmethylsulfonyl fluoride (PMSF) and centrifuged at 20,000 g for 20 minutes. The soluble fraction was subsequently incubated with 2 mL Ni-NTA (GE Healthcare) per 1,000 ODs for 1 hour at 4° C. Following incubation with the Ni-NTA resin, lysate was removed by pelleting resin at 2,500 g for 3 minutes and washed 3 times with 9 bed volumes of 50 mM potassium phosphate pH 8.0, 500 mM NaCl, 25 mM imidazole, and 3 mM β-mercaptoethanol. Following the batch wash Ni-NTA resin was loaded onto a gravity column and His-tagged protein was eluted with 6 bed volumes of 10 mM Tris/HCl pH 8.0, 200 mM NaCl, 500 mM imidazole, and 3 mM β-mercaptoethanol. Eluted protein was dialyzed overnight against 10 mM Tris/HCl pH 8.0, 200 mM NaCl, and 1 mM DTT and the 6×-His-8×-Arg-SUMO-tag was cleaved using a 20:1 molar ratio of protein:3C protease. The protein was purified by anion exchange chromatography on a HiTrapQ or MonoQ 10/100 GL column (GE Healthcare) via a linear NaCl gradient and twice by size exclusion chromatography using a Superdex S200 26/60 column (GE Healthcare) run in 10 mM Tris/HCl pH 8.0, 200 mM NaCl, 10 mM MgCl2, 1 mM DTT. Proteins were concentrated to ˜12 mg/mL for crystallization and flash frozen for storage.
Activation of pyruvate kinase R (PKR) and pyruvate kinase M2 (PKM2) were measured using a luminescence based measurement of ATP generation and the Kinase-Glo luminescent kinase reagent kit. 0.1 nM of PKR or PKM2 was incubated for 1 hour with 0.3 mM ADP, 2 mM FBP, 1% DMSO, compound and Assay Buffer mix (500 mM Tris/HCl pH 7.5, 500 mM NaCl, 50 mM MgCl2, BSA, and 2 mM DTT, in a total reaction volume of 30 uL. After one hour PEP was added to the reaction at a final concentration of 0.1 mM and incubated for another hour at room temperature. 30 uL of KinaseGlo reagent was added and the reaction was incubated for 15 minutes. Endpoint luminescence data was measured using an EnVision plate reader (PerkinElmer). The assay results are provided in Table 2 for PKR.
(In general: Kinase-Glo reads ATP consumption through a luciferase reaction.)

Assay [2] concerns the target T2, Pyruvate Kinase M2 (PKM2) in H1299 cells (Homo sapiens, UniProt P14618).
T2 construct: endogenous in cells; host or cells: H1299 cells
Put plainly: Cell based assay for activation of pyruvate kinase M2 in lung carcinoma cell line (H1299, NADH/LDH coupled assay of lysate). Conditions: PKM2 cellular assay; for AC50: H1299 cells, 90 minutes with compound; for PKM2 % activation: maximal activation level relative to the activation level achieved by AG-348 @ 10 μM. On the procedure:
H1299 cells were seeded in 96-well plates at 2,000 cells/well (100 uL). Treated plates were incubated overnight at 37° C. with 5% CO2. Compounds were diluted in complete media and added to cells in the presence of 1% DMSO. Cells were incubated with compound for 90 minutes at 37° C. and 5% CO2 before washing three times with PBS to remove residual compound and then lysed in lysis buffer (Cell Signaling). Cell lysate was analyzed using the NADH coupled assay described below with a reaction mixture of 180 uM NADH, 2 mM ADP, 0.5 units of LDH and 0.5 mM of PEP. PKM2 activity was measured at steady state using a coupled enzyme activation system based on NADH consumption. PKM2 produces pyruvate and the coupled system uses lactate dehydrogenase (LDH) to reduce pyruvate to lactate with the concomitant oxidation of NADH to NAD^+. Conversion of NADH to NAD^+ was monitored using a SPECTROstar Nano plate reader (BMG Labtech) at a wavelength of 340 nm and subtraction of background absorbance measured at 750 nm. The change in NADH absorbance after PEP addition was monitored and slope obtained by subtracting baseline at 750 nm followed by least squares fitting to a simple linear regression model. A 10-point curve was generated to calculate the AC50 values by fitting the rates of NADH consumption against increasing concentration of compound.

Assay [3] has as its system PK activity, ATP levels, RBC parameters. To be noted: mouse model of beta-thalassemia; cited from earlier work.

T1 sequence (P30613 14-574): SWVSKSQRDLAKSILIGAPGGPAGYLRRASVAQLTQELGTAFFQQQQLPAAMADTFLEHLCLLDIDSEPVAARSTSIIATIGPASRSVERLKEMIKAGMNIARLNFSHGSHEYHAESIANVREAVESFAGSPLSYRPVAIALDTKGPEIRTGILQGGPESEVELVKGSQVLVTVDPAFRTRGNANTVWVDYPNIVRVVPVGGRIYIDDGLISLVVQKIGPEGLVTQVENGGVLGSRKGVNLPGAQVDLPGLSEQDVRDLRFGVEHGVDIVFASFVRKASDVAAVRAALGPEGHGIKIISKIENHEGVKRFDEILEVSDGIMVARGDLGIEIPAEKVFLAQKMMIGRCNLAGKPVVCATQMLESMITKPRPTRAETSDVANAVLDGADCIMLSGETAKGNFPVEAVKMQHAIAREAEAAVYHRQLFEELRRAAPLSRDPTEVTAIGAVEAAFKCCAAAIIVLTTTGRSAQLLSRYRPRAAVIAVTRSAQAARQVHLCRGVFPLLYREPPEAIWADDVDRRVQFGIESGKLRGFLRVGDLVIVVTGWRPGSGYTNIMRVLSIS
T2 sequence (P14618 2-531 limits assumed): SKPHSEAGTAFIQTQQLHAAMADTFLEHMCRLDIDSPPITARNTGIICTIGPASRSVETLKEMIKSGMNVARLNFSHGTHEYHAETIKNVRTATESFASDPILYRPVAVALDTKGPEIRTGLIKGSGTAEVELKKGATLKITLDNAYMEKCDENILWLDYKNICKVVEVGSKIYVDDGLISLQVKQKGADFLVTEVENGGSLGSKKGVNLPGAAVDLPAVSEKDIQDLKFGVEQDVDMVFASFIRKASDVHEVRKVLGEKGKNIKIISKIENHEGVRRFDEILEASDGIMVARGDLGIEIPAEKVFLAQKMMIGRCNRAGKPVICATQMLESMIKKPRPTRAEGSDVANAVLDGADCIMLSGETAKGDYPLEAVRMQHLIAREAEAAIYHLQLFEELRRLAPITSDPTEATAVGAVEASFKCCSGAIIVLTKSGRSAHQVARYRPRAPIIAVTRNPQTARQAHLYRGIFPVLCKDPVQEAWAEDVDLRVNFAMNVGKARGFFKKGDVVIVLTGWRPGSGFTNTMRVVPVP

In assay [1], `O=C(Cn1c(=O)oc2ccccc21)N1Cc2cn(S(=O)(=O)c3cnn(CC(F)F)c3)nc2C1` [Compound 3, 3-[2-(2-{[1-(2,2-difluoroethyl)-1H-pyrazol-4-yl]sulfonyl}-2H,4H,5H,6H-pyrrolo[3,4-c]pyrazol-5-yl)-2-oxoethyl]-2,3-dihydro-1,3-benzoxazol-2-one] showed a half-maximal activity concentration (AC50) of 1800 nM and an Emax of 60%.

As for `O=C(CN1C(=O)Cc2ccccc21)N1Cc2cn(S(=O)(=O)c3cnn(CC(F)F)c3)nc2C1` [Compound 2, 1-[2-(2-{[1-(2,2-difluoroethyl)-1H-pyrazol-4-yl]sulfonyl}-2H,4H,5H,6H-pyrrolo[3,4-c]pyrazol-5-yl)-2-oxoethyl]-2,3-dihydro-1H-indol-2-one], in assay [1], the activity was half-maximal at 410 nM (AC50) and the maximum response (Emax) came out at 32%.

In assay [1], `O=C1Nc2ccccc2C1CC(=O)N1Cc2cn(S(=O)(=O)c3ccc4ncsc4c3)nc2C1` (stereo not drawn) [Compound 9, 3-{2-[2-(1,3-benzothiazole-6-sulfonyl)-2H,4H,5H,6H-pyrrolo[3,4-c]pyrazol-5-yl]-2-oxoethyl}-2,3-dihydro-1H-indol-2-one] returned a half-maximal activity concentration (AC50) of 28 nM and a maximal response (Emax) of 161%. Further, in assay [2], the AC50 was 100 nM and the PKM2 % activation is 87%.

On to `CC1(CC(=O)N2Cc3cn(S(=O)(=O)c4cnn(CC(F)F)c4)nc3C2)C(=O)Nc2ccccc21` (stereo not drawn) [Compound 8, 3-[2-(2-{[1-(2,2-difluoroethyl)-1H-pyrazol-4-yl]sulfonyl}-2H,4H,5H,6H-pyrrolo[3,4-c]pyrazol-5-yl)-2-oxoethyl]-3-methyl-2,3-dihydro-1H-indol-2-one], for which, in assay [1], the AC50 was found to be 1900 nM and the Emax came to 95%.

In assay [1], `O=C1COc2ccccc2C(C(=O)N2Cc3cn(S(=O)(=O)c4ccc(OC(F)F)cc4)nc3C2)N1` (stereo not drawn) [Compound 12, 5-{2-[4-(difluoromethoxy)benzenesulfonyl]-2H,4H,5H,6H-pyrrolo[3,4-c]pyrazole-5-carbonyl}-2,3,4,5-tetrahydro-1,4-benzoxazepin-3-one] returned an AC50 of 210 nM and a maximal response (Emax) of 91%.

In assay [1], `O=C1Nc2ccccc2C1CC(=O)N1Cc2cn(S(=O)(=O)c3ccc(OC(F)F)cc3)nc2C1` (stereo not drawn) [Compound 10, 3-(2-{2-[4-(difluoromethoxy)benzenesulfonyl]-2H,4H,5H,6H-pyrrolo[3,4-c]pyrazol-5-yl}-2-oxoethyl)-2,3-dihydro-1H-indol-2-one] had an AC50 of 78 nM and an Emax of 129%. In assay [2], the half-maximal activity concentration (AC50) is 14 nM and the PKM2 % activation was 165%.

On to `O=C(CN1C(=O)Cc2ccccc21)N1Cc2cn(S(=O)(=O)c3ccc(OC(F)F)cc3)nc2C1` [Compound 11, 1-(2-{2-[4-(difluoromethoxy)benzenesulfonyl]-2H,4H,5H,6H-pyrrolo[3,4-c]pyrazol-5-yl}-2-oxoethyl)-2,3-dihydro-1H-indol-2-one], for which, in assay [1], the AC50 came out at 1700 nM and the Emax is 77%.

Take `O=C1Cc2ccccc2C(C(=O)N2Cc3cn(S(=O)(=O)c4cnn(CC(F)F)c4)nc3C2)N1` (stereo not drawn) [Compound 6, 1-(2-{[1-(2,2-difluoroethyl)-1H-pyrazol-4-yl]sulfonyl}-2H,4H,5H,6H-pyrrolo[3,4-c]pyrazole-5-carbonyl)-1,2,3,4-tetrahydroisoquinolin-3-one]: in assay [1], the activity was half-maximal at 4400 nM (AC50) and the maximal effect (Emax) is 84%.

Consider `O=C(Cn1c(=O)[nH]c2ccccc21)N1Cc2cn(S(=O)(=O)c3cnn(CC(F)F)c3)nc2C1` [Compound 4, 1-[2-(2-{[1-(2,2-difluoroethyl)-1H-pyrazol-4-yl]sulfonyl}-2H,4H,5H,6H-pyrrolo[3,4-c]pyrazol-5-yl)-2-oxoethyl]-2,3-dihydro-1H-1,3-benzodiazol-2-one], for which, in assay [1], the concentration at half-maximal activity (AC50) was found to be 10000 nM and the Emax was 78%.

For the molecule `O=C1Nc2ccccc2C1CC(=O)N1Cc2cn(S(=O)(=O)c3cnn(CC(F)F)c3)nc2C1` (stereo not drawn) [Compound 1, 3-[2-(2-{[1-(2,2-difluoroethyl)-1H-pyrazol-4-yl]sulfonyl}-2H,4H,5H,6H-pyrrolo[3,4-c]pyrazol-5-yl)-2-oxoethyl]-2,3-dihydro-1H-indol-2-one], in assay [1], the AC50 came out at 230 nM and the Emax stood at 212%.

In assay [1], `O=C1COc2c(F)cccc2C(C(=O)N2Cc3cn(S(=O)(=O)c4cnn(CC(F)F)c4)nc3C2)N1` (stereo not drawn) [Compound 7, 5-(2-{[1-(2,2-difluoroethyl)-1H-pyrazol-4-yl]sulfonyl}-2H,4H,5H,6H-pyrrolo[3,4-c]pyrazole-5-carbonyl)-9-fluoro-2,3,4,5-tetrahydro-1,4-benzoxazepin-3-one] gave an AC50 of 1800 nM and an Emax of 66%.

Turning to `O=C(c1ccc(NS(=O)(=O)c2cccc3cccnc23)cc1)N1CCN(CC2CC2)CC1` [AG-348, Mitapivat], in assay [3], the “PK activity and ATP levels” value was “increased”; the RBC parameters entry is given as “improved”.

In assay [1], `O=C1COc2ccccc2C(C(=O)N2Cc3cn(S(=O)(=O)c4cnn(CC(F)F)c4)nc3C2)N1` (stereo not drawn) [Compound 5, 5-(2-{[1-(2,2-difluoroethyl)-1H-pyrazol-4-yl]sulfonyl}-2H,4H,5H,6H-pyrrolo[3,4-c]pyrazole-5-carbonyl)-2,3,4,5-tetrahydro-1,4-benzoxazepin-3-one] displayed a half-maximal activity concentration (AC50) of 490 nM and an Emax of 91%.

The term AC50 denotes the midpoint of the concentration-response curve, whichever way the signal moves. By Emax is commonly meant the maximal effect, on the per cent scale that the assay sets.

The values above are taken from patent publication US20240408107A1, “LACTAM PYRROLIDINE-PYRAZOLES AS PYRUVATE KINASE ACTIVATORS” (Global Blood Therapeutics, Inc., priority 2021, published 2024).
